Laboratory results as given in patent publication US20200085979A1, “PRECISION MEDICINE THERANOSTICS AND DIAGNOSTICS A COMBINATION THEREOF” (priority 2018, published 2020).

Legend:
[1] = tested on: αvβ3 and αvβ5 integrin; test: comparison of the αvβ3 and αvβ5 integrin antagonist peptidomimetic with an αvβ3 integrin peptide in nude mice, same chelator and radionuclide; format: in vivo; conditions: versus αvβ3 integrin peptide
Excerpt: Embodiments of the present invention also utilize the therapeutic compounds of the invention in conjunction with a diagnostic. Compounds containing αvβ3/αvβ5 anti-integrin antagonist peptidomimetic, displaying a selective affinity for the HER2+ protein, vitronectin, fibronectin, tenascin, reelin, kindlin, talin or combination thereof for the diagnosis or prognosis of disorders using PET, SPECT and MRI or combinations by administering an effective amount of activity thereof to a subject, particularly for the diagnosis of diseases related to metastasis and angiogenesis such as breast cancer, lung cancer, ovarian cancer, gastric cancer, esophageal cancer, blood borne cancers, musculoskeletal tumors, melanoma, head and neck cancer, human glioma, cervical cancer, vascular restenosis, osteoporosis, rheumatoid arthritis. […] The compounds referred to may be radiotracers for nuclear medicine, such as the Gallium-68 or Fluorine-18, […], Copper-64, or Technetium-99m, covalently bound to a spacer, chelator, directly to the peptidomimetic, to a nanoparticle or to more than one amino acid unit of the peptidomimetic. Other radiotracers are those reported in the publication Radionuclide Peptide Cancer Therapy, edited by M. Chinol and G. Paganelli, Taylor and Francis CRC Press, 2006. […]

[2] = tested on: HER2+ breast cancer; test: human PET study versus [18F] Fludeoxyglucose PET scan in an HER2+ breast cancer patient; format: in vivo

For “4-[2-(3,4,5,6-tetrahydropyrimidine-2-ylamino)ethyloxy]benzoyl-2-[N-(3-aminoneopenta-1-carbamyl)]-aminoethylsulfonyl-amino-β-alanine [integrin antagonist peptidomimetic]”, the “affinity for the targeted organs relative to the comparator αvβ3 integrin peptide” value [1] was “three to seven times better” and the “tumors distant from the primary detected” value [2] was 25 tumors.
